# Marks after values point to notes of the source that are not given here.
# Tests used:
# male Sprague-Dawley rats = assay: EEG/EMG/Tcore/LMA telemetry sleep study 3 (almorexant vs ZOL); assay type: in vivo, rat
# Protocol: All rodent electroencephalograph (EEG) studies were performed at SRI International. Three groups of eight male Sprague-Dawley rats (300±25 g; Charles River, Wilmington, MA) were implanted with chronic recording devices (F40-EET, Data Sciences Inc., St Paul, MN) for continuous recordings of EEG, electromyograph (EMG), core body temperature (Tcore), and LMA via telemetry as previously described. Data recording and scoring were performed as previously reported (see also Supplemental Material and Methods). The EEG and EMG data were scored in 10 sec epochs for waking (W), rapid eye movement sleep (REM), and non-REM sleep (NR). Tcore and LMA (counts per minute) were analyzed as hourly means. Data from the EEG studies are reported in hourly means such that the hourly time ZT1 refers to the hour between time points ZT0 and ZT1.
# For each of the three separate studies, a repeated measures counter-balanced design was employed in which each rat received five separate dosings. […] All dosings were administered ip in a volume of 2 ml/kg. A minimum of 3 d elapsed between doses. Dosing occurred during the middle of the rats’ normal active period at the start of ZT19 and was typically completed within 10 min. Animals were continuously recorded for 6 h prior to dosing and for 18 h following dosing.
# hHCRTR2 = biological target: hHCRTR2; set-up: method as in PMID 9821961; conditions: 37°C; cited from earlier work
smiles,measurement,setting,value
"CNC(=O)[C@@H](c1ccccc1)N1CCc2cc(OC)c(OC)cc2[C@@H]1CCc1ccc(C(F)(F)F)cc1 [almorexant, (2R)-2-[(1S)-6,7-Dimethoxy-1-[2-(4-trifluoromethyl-phenyl)-ethyl]-3,4-dihydro-1H-isoquinolin-2-yl]-N-methyl-2-phenyl-acetamide]",NR bout duration,"male Sprague-Dawley rats; ZT21, 100 mg/kg ip",1.31 ± 0.15^+
same,Number of NR bouts,"male Sprague-Dawley rats; ZT21, 100 mg/kg ip",23.75 ± 1.47
same,Number of REM bouts,"male Sprague-Dawley rats; ZT21, 100 mg/kg ip",6.75 ± 1.06^+
same,Number of W bouts,"male Sprague-Dawley rats; ZT21, 100 mg/kg ip",20.88 ± 2.21^+
same,REM bout duration,"male Sprague-Dawley rats; ZT21, 100 mg/kg ip",1.28 ± 0.18
same,W bout duration,"male Sprague-Dawley rats; ZT21, 100 mg/kg ip",0.93 ± 0.15^+
same,NR bout duration,"male Sprague-Dawley rats; ZT21, almorexant 10 mg/kg ip",1.17 ± 0.16^+
same,Number of NR bouts,"male Sprague-Dawley rats; ZT21, almorexant 10 mg/kg ip",15.88 ± 2.00
same,Number of REM bouts,"male Sprague-Dawley rats; ZT21, almorexant 10 mg/kg ip",4.75 ± 1.13^+
same,Number of W bouts,"male Sprague-Dawley rats; ZT21, almorexant 10 mg/kg ip",13.50 ± 1.73
same,REM bout duration,"male Sprague-Dawley rats; ZT21, almorexant 10 mg/kg ip",1.40 ± 0.16
same,W bout duration,"male Sprague-Dawley rats; ZT21, almorexant 10 mg/kg ip",3.03 ± 0.90
same,NR bout duration,"male Sprague-Dawley rats; ZT22, 30 mg/kg ip",1.04 ± 0.11^+
same,Number of NR bouts,"male Sprague-Dawley rats; ZT22, 30 mg/kg ip",17.25 ± 2.58
same,Number of REM bouts,"male Sprague-Dawley rats; ZT22, 30 mg/kg ip",2.88 ± 0.74
same,Number of W bouts,"male Sprague-Dawley rats; ZT22, 30 mg/kg ip",14.88 ± 1.99
same,REM bout duration,"male Sprague-Dawley rats; ZT22, 30 mg/kg ip",1.26 ± 0.17
same,W bout duration,"male Sprague-Dawley rats; ZT22, 30 mg/kg ip",3.07 ± 0.83
same,NR bout duration,"male Sprague-Dawley rats; ZT22, 100 mg/kg ip",1.12 ± 0.15
same,Number of NR bouts,"male Sprague-Dawley rats; ZT22, 100 mg/kg ip",23.88 ± 1.34
same,Number of REM bouts,"male Sprague-Dawley rats; ZT22, 100 mg/kg ip",7.38 ± 1.49*^+
same,Number of W bouts,"male Sprague-Dawley rats; ZT22, 100 mg/kg ip",20.00 ± 0.89*^+
same,REM bout duration,"male Sprague-Dawley rats; ZT22, 100 mg/kg ip",1.07 ± 0.18
same,W bout duration,"male Sprague-Dawley rats; ZT22, 100 mg/kg ip",1.13 ± 0.15^+
same,NR bout duration,"male Sprague-Dawley rats; ZT22, almorexant 10 mg/kg ip",1.07 ± 0.19^+
same,Number of NR bouts,"male Sprague-Dawley rats; ZT22, almorexant 10 mg/kg ip",14.38 ± 2.58
same,Number of REM bouts,"male Sprague-Dawley rats; ZT22, almorexant 10 mg/kg ip",2.88 ± 0.81
same,Number of W bouts,"male Sprague-Dawley rats; ZT22, almorexant 10 mg/kg ip",13.00 ± 2.92
same,REM bout duration,"male Sprague-Dawley rats; ZT22, almorexant 10 mg/kg ip",1.05 ± 0.36
same,W bout duration,"male Sprague-Dawley rats; ZT22, almorexant 10 mg/kg ip",4.74 ± 1.57
same,NR bout duration,"male Sprague-Dawley rats; ZT23, 30 mg/kg ip",1.03 ± 0.12
same,Number of NR bouts,"male Sprague-Dawley rats; ZT23, 30 mg/kg ip",16.63 ± 2.88
same,Number of REM bouts,"male Sprague-Dawley rats; ZT23, 30 mg/kg ip",2.88 ± 0.93
same,Number of W bouts,"male Sprague-Dawley rats; ZT23, 30 mg/kg ip",15.13 ± 2.71
same,REM bout duration,"male Sprague-Dawley rats; ZT23, 30 mg/kg ip",0.91 ± 0.19
same,W bout duration,"male Sprague-Dawley rats; ZT23, 30 mg/kg ip",5.53 ± 3.36
same,NR bout duration,"male Sprague-Dawley rats; ZT23, 100 mg/kg ip",0.90 ± 0.07
same,Number of NR bouts,"male Sprague-Dawley rats; ZT23, 100 mg/kg ip",23.13 ± 2.61
same,Number of REM bouts,"male Sprague-Dawley rats; ZT23, 100 mg/kg ip",4.00 ± 0.82
same,Number of W bouts,"male Sprague-Dawley rats; ZT23, 100 mg/kg ip",21.00 ± 3.02
same,REM bout duration,"male Sprague-Dawley rats; ZT23, 100 mg/kg ip",1.16 ± 0.12
same,W bout duration,"male Sprague-Dawley rats; ZT23, 100 mg/kg ip",2.15 ± 0.68
same,NR bout duration,"male Sprague-Dawley rats; ZT23, almorexant 10 mg/kg ip",1.11 ± 0.19
same,Number of NR bouts,"male Sprague-Dawley rats; ZT23, almorexant 10 mg/kg ip",8.00 ± 1.68
same,Number of REM bouts,"male Sprague-Dawley rats; ZT23, almorexant 10 mg/kg ip",1.25 ± 0.65
same,Number of W bouts,"male Sprague-Dawley rats; ZT23, almorexant 10 mg/kg ip",6.63 ± 1.88
same,REM bout duration,"male Sprague-Dawley rats; ZT23, almorexant 10 mg/kg ip",0.61 ± 0.17
same,W bout duration,"male Sprague-Dawley rats; ZT23, almorexant 10 mg/kg ip",12.59 ± 3.87
same,NR bout duration,"male Sprague-Dawley rats; ZT24, 30 mg/kg ip",1.50 ± 0.24
same,Number of NR bouts,"male Sprague-Dawley rats; ZT24, 30 mg/kg ip",19.88 ± 2.63
same,Number of REM bouts,"male Sprague-Dawley rats; ZT24, 30 mg/kg ip",2.38 ± 0.98
same,Number of W bouts,"male Sprague-Dawley rats; ZT24, 30 mg/kg ip",12.00 ± 2.70
same,REM bout duration,"male Sprague-Dawley rats; ZT24, 30 mg/kg ip",0.98 ± 0.15
same,W bout duration,"male Sprague-Dawley rats; ZT24, 30 mg/kg ip",4.32 ± 1.06
same,NR bout duration,"male Sprague-Dawley rats; ZT24, 100 mg/kg ip",1.14 ± 0.08
same,Number of NR bouts,"male Sprague-Dawley rats; ZT24, 100 mg/kg ip",19.88 ± 1.14
same,Number of REM bouts,"male Sprague-Dawley rats; ZT24, 100 mg/kg ip",5.25 ± 1.08*^+
same,Number of W bouts,"male Sprague-Dawley rats; ZT24, 100 mg/kg ip",15.88 ± 1.14
same,REM bout duration,"male Sprague-Dawley rats; ZT24, 100 mg/kg ip",1.16 ± 0.14^+
same,W bout duration,"male Sprague-Dawley rats; ZT24, 100 mg/kg ip",1.92 ± 0.34
same,NR bout duration,"male Sprague-Dawley rats; ZT24, almorexant 10 mg/kg ip",1.14 ± 0.14
same,Number of NR bouts,"male Sprague-Dawley rats; ZT24, almorexant 10 mg/kg ip",15.25 ± 2.30
same,Number of REM bouts,"male Sprague-Dawley rats; ZT24, almorexant 10 mg/kg ip",3.25 ± 0.94
same,Number of W bouts,"male Sprague-Dawley rats; ZT24, almorexant 10 mg/kg ip",12.00 ± 2.10
same,REM bout duration,"male Sprague-Dawley rats; ZT24, almorexant 10 mg/kg ip",1.02 ± 0.21^+
same,W bout duration,"male Sprague-Dawley rats; ZT24, almorexant 10 mg/kg ip",4.00 ± 1.17
same,REM bout duration (in words),male Sprague-Dawley rats; first hour after treatment,significantly increased REM bout duration
same,Tcore (in words),"male Sprague-Dawley rats; high concentration tested, across 6 h",decreased Tcore
same,REM bouts compared to vehicle,"male Sprague-Dawley rats; highest dose (100 mg/kg), latter half of the dark period",2 to 3 fold
same,latency to REM sleep (in words),"male Sprague-Dawley rats; only 30 mg/kg ip at ZT19, vs vehicle",decreased latency to REM sleep
same,Ki,hHCRTR2,0.9 nM

# Reference: paper PMC3388080 (PLoS ONE, 2012)
